Data taken from patent US9546129B2, “DTPA prodrugs, compositions thereof, and methods of using the same” (priority 2012, dated 2017).
Where two headings read alike, the source gives them in different places.

Key:
Caco-2 cells = test: Caco-2 transport study (apical to basolateral); format: in vitro ADME, human
Procedure: (§1) Caco-2 cells are a human colon epithelial cancer cell line that expresses transporters, efflux proteins and phase II enzymes and can be used to correlate cell permeability with drug absorption. In addition to determining the apparent permeability coefficient, an estimation of C2E2 metabolism during transport can be obtained. The aim of these preliminary studies was to evaluate a range of C2E2 concentrations (25, 50 & 100 μM) in order to determine a linear concentration range in which further studies could be performed.
(§2) Caco-2 cells (passage #39) were cultured in 75 cm^2T-flasks at 37° C. in a 5% CO2 constant humidity environment. The medium was replaced 3 times a week and the monolayers were sub-cultured to passage #41. When plating the cells 0.5 mL of a 120,000 cells/mL suspension was added to each apical (AP) compartment of the first and then 1.5 mL of cell culture medium was placed into the basolateral (BL) compartment of the Transwells®. Following 21-24 days on the Transwell® plates with media changes 2-3 times a week the Caco-2 transport studies were performed.
(§3) Prior to the transport experiments the transport medium was warmed to 37° C. Transport medium consisted of Hank's Balanced Salt Solution (HBSS) (1×) with calcium and magnesium 500 mL with the addition of 1M HEPES buffer (5 mL) and 1.25M D-Glucose solution in HBSS (10 mL). The cell culture medium was removed from the Transwells® to be used for the experiment and each well was washed twice with warm transport medium. The Transwells® were then pre-incubated for 30 min with transport medium. Finally, the trans-epithelial resistance (TEER) values for each Transwell® were measured using a voltohmmmeter and chopstick electrode. The TEER values should be in the range of 300-750 and should vary as little as possible. Dosing solutions were prepared in warm (37° C.) transport medium. […] The concentration of C2E2 was then determined by LC-MS/MS. The concentration of the dosing solutions was also measured to determine the concentration in the donor compartment at time zero. […]

[1] = Caco-2 transport study (apical to basolateral); format: in vitro ADME, human; settings: human, Caco-2; apical to basolateral; read-out: Apparent permeation coefficient
Procedure: as §1, §2, §3

[2] = 10-day repeat-dose toxicity and toxicokinetics study in dogs; format: in vivo, Beagle dog; settings: for AUC(0-t) / Cmax: plasma, po, 200 mg/kg/day, after 10 days of dosing; for AUC(0-t): read-out: C2E2 AUC0-24; for Cmax: read-out: Mean C2E2 Cmax
Procedure: An exploratory study was conducted to evaluate the toxicity and to determine the toxicokinetics of the test article, C2E2, when administered to dogs via 10 daily oral gavage doses. Groups of 2 Beagle dogs/sex were administered C2E2 via oral gavage at dose levels of 0, 60, 200, 400, or 600 mg/kg. The vehicle was reverse osmosis water and the dose volume was 8 mL/kg. Assessment of toxicity was based on mortality, clinical observations, body weight, food consumption, clinical pathology, gross pathology, organ weights, histopathology of selected tissues, and plasma essential trace elements analysis. Blood samples were collected on Days 1 and 10 for toxicokinetic evaluations of C2E2, C2E1, DTPA and C2E3. C2E3 is believed to be an impurity in the C2E2 lot used.

CCOC(=O)CN(CCN(CCN(CC(=O)O)CC(=O)OCC)CC(=O)O)CC(=O)O [C2E2, 6,9-bis(carboxymethyl)-3-(2-ethoxy-2-oxoethyl)-11-oxo-12-oxa-3,6,9-triazatetradecan-1-oic acid]
Percentage of dose detected in the receiving compartment (Caco-2 cells; apical to basolateral, 25, 50 & 100 μM, two hours): 18-22% | Predicted absorption in humans (Caco-2 cells; from Caco-2 Papp using data of Shiyin Yee): 20-70% | Papp A→B at 120 min [1]: 4.88 ×10⁻⁶ cm/s | Dose proportionality of mean Cmax and AUC0-24 ([2]; 60 to 600 mg/kg/day): not consistently dose proportional | Maximum-tolerated dose (statement) ([2]; 400 and 600 mg/kg/day, early sacrifices): exceeded the maximum-tolerated dose | NOAEL at 10 days ([2]; both sexes, Beagle, dog, in vivo, dogs, oral gavage, 10 days, read-out: No observed adverse effect level (NOAEL)): 200 mg/kg/day | Accumulation after multiple dosing ([2]; dogs, 10 daily doses): No accumulation | Sex differences in C2E2 mean Cmax and AUC0-24 ([2]; dogs, 60-600 mg/kg/day): less than 2 fold | Dose at which liver and kidney were target organs of toxicity ([2]; dogs, 10 days): ≥ 400 mg/kg/day | Dose with clinical chemistry changes consistent with hepatotoxicity ([2]; dogs, 10 days): ≥ 400 mg/kg/day | Dose with test article related clinical observations (vomitus/emesis, fecal abnormalities) ([2]; dogs, 10 days): ≥ 200 mg/kg/day | AUC(0-t) ([2]; female, Beagle, dog, females): 184 µg·h/mL | Cmax ([2]; female, Beagle, dog, females): 72 µg/mL | Dose with dose-dependent body weight loss ([2]; females): ≥ 400 mg/kg/day | AUC(0-t) ([2]; male, Beagle, dog, males): 151 µg·h/mL | Cmax ([2]; male, Beagle, dog, males): 59.5 µg/mL | Dose with dose-dependent body weight loss ([2]; males): ≥ 200 mg/kg/day | Dose with hepatocyte degeneration/necrosis and mixed cell inflammation ([2]; males, terminal sacrifice): ≥ 200 mg/kg/day | Mortality / early sacrifice ([2]; one male 600 mg/kg/day, one male 400 mg/kg/day): Two animals were sacrificed early due to moribund condition | Essential trace elements in plasma (Cr, Co, Cu, Fe, Mg, Mn, Mo, Se, Zn) ([2]; repeated doses up to 600 mg/kg/day for 10 days): No test article-related depletion of essential trace elements in plasma
